From paper PMC9811213, “Glutamine deamidation does not increase the immunogenicity of C-peptide in people with type 1 diabetes” (Journal of Translational Autoimmunity, 2022) come the findings set out here.

For assay [1], the system named is Jurkat line (ACD4_38) expressing a C-peptide specific TCR. The experiment in a line: IL-2 secretion (ELISA) by TCR-transduced Jurkat line, peptide titration. Type of assay: cell-based, human. The conditions noted are these: clone ACD4_38, two independent experiments. As for the experimental part:
(§1) TCR-transduced T cells were cultured, in triplicate, in cRPMI/5% FBS at 2 × 10^4/well with an equal number of EBV-transformed B cells (see Supplementary Table 3) and different peptides (Purar Chemicals). See Supplementary Table 6 for a full list of peptides used in this study. The positive control was PMA (10 ng/mL) and ionomycin (500 ng/mL) in culture media. Negative controls had all cells, but no peptide. After overnight culture supernatant was collected for IL-2 ELISA.
ELISAs were performed using the ELISA MAX™ Deluxe set Human IL-2 (BioLegend) as per the manufacturer's instructions. Briefly, 96-well ELISA plates (Greiner Bio-One) were coated with 100μL/well of purified anti-human IL-2 antibody diluted 1:200. […] The reaction was stopped by the addition of 2 M H2SO4 solution (BioLegend) and optical density (OD) measured using a FLUOstar Omega microplate reader (BMG LabTech). The amount of IL-2 secreted was determined using a linear regression of all OD values (minus the background) of the standard curve. […]
To determine if C-peptide specific TCRs were more sensitive to Q to E variants of C-peptide we tested graded concentrations of wild type C-peptide and five deamidated variants. […] To compare the relative potency of the Q to E substituted peptides the responses were calculated as fold change relative to full-length, WT C-peptide (Fig. 2D). […]
For orientation: ELISA stands for enzyme-linked immunosorbent assay.

Assay [2] deals with 18 Jurkat T-cell lines expressing C-peptide specific TCRs. The experiment in a line: IL-2 secretion (ELISA) by panel of 18 TCR-transduced Jurkat lines, peptide titration. In kind it is cell-based, human. The conditions noted are these: Mann-Whitney test, Fig. 2H. As to the method: as §1
ELISAs were performed using the ELISA MAX™ Deluxe set Human IL-2 (BioLegend) as per the manufacturer's instructions. […] The reaction was stopped by the addition of 2 M H2SO4 solution (BioLegend) and optical density (OD) measured using a FLUOstar Omega microplate reader (BMG LabTech). The amount of IL-2 secreted was determined using a linear regression of all OD values (minus the background) of the standard curve. […]
Fig. 2 C-peptide specific TCR responses to deamidated C-peptide variants (A) Each peptide is referred to by the position, within C-peptide of the glutamine (Q), in bold, to glutamic acid (E), in red text, substitutions. […] (C) The EC50 for each peptide was calculated the and the EC50 from two independent experiments are shown. […] Statistical significance was determined using the Mann-Whitney test (ns, not significant, […], p < 0.05, **p < 0.01, ***p < 0.001). […]

Turning to “EAEDLEVGEVELGGGPGAGSLEPLALEGSLE [QallE, C-peptide with all four glutamines substituted for glutamic acid]”, in assay [1], the “Stimulation compared with WT C-peptide and the other single substituted peptides (EC50, IL-2)” value is reported as “dramatically less stimulatory”.

For the sequence “EAEDLQVGEVELGGGPGAGSLQPLALEGSLQ [Q9E, C-peptide variant with glutamine 9 substituted for glutamic acid]”, the “Stimulation compared with WT C-peptide and the other single substituted peptides (EC50, IL-2)” value in assay [1] is on record as “dramatically less stimulatory”.

Turning to “EAEDLQVGQVELGGGPGAGSLQPLALEGSLE [Q31E, C-peptide variant with glutamine 31 substituted for glutamic acid]”, the “Difference in fold change in EC50 (relative to full-length C-peptide) between clones with overlapping and non-overlapping epitopes” value in assay [2] is reported as “no difference”.
